# Like-named read-outs stand apart in the source and are kept apart here.
# Legend:
# [1] = test system: cholesterol oxidase; assay: Activation of cholesterol oxidase by surface-active compounds; format: biochemical; settings: for activation of cholesterol oxidase: result in words; for appropriate concentration range of surface-active compound for activation: too small an amount gives no activation, too large denatures the enzyme
# Source text: In addition, other surface-active substances with lipophilic and hydrophilic properties which contain at least one hydroxyl group, can also be used. Examples of such compounds include ethanol, butyl-diglycol and hexyleneglycol.
# The appropriate concentration range, as well as the optimum concentration, can be experimentally determined for all appropriate surface-active agents.
# [2] = test system: cholesterol oxidase; assay: Determination of cholesterol in serum with detergent-free cholesterol oxidase, extinction at 240 nm; format: biochemical; settings: 0.4% in 0.5 M potassium phosphate buffer pH 7.5, 0.1 U enzyme; without surface-active agent 15 minutes were required
# Procedure: 0.05 ml. of serum were added to 10 ml. 0.5 M potassium phosphate buffer of pH 7.5 which contained 0.4% hydroxypolyethoxydodecane. The extinction (E1) was read off at 240 nm in a suitable spectrophotometer and the reaction started with 0.02 ml. (0.1 U) of storage-stable cholesterol oxidase, freed from traces of detergent, in 1 M aqueous ammonium sulfate solution. After 3 minutes, the extinction (E2) was read off. The concentration of the cholestenone formed and thus of the cholesterol was given by the difference between the first and second readings, having regard to the molar extinction coefficients for […] at 240 nm. The measurement of a typical sample gave 62 mg.% free cholesterol and 167 mg.% total cholesterol (after saponification).
# A comparative determination but without the addition of the surface-active agent required a reaction time of 15 minutes.
# [3] = test system: cholesterol oxidase; settings: 1 M ammonium sulfate, 33° C.
# Procedure: The experiments were carried out with an octyl-phenol-ethylene oxide adduct.
Molecule,activation of cholesterol oxidase [1],appropriate concentration range of surface-active compound for activation [1] [wt.%],further results
OC1CCCCC1 [cyclohexanol],no activation,,
OCCO [ethylene glycol],no activation,,
OCC(O)CO [glycerol],no activation,,
CO [methanol],no activation,,
C[C@H](CCC(=O)O)[C@H]1CC[C@H]2[C@@H]3CC[C@@H]4C[C@H](O)CC[C@]4(C)[C@H]3C[C@H](O)[C@]12C [sodium desoxycholate],,0.03 to 0.05,
desoxycholates,Similarly good results,,
hydroxypolyethoxydodecane,,0.15 to 0.6,reaction time of the cholesterol determination [2]: 3 min
octyl-phenol-ethylene oxide adduct,,0.03 to 0.1,"Activity of cholesterol oxidase in %, referred to freshly prepared enzyme ([3]; detergent 0.02%, storage period 10 days): 60%; Activity of cholesterol oxidase in %, referred to freshly prepared enzyme ([3]; detergent 0.02%, storage period 22 days): 40%; Activity of cholesterol oxidase in %, referred to freshly prepared enzyme ([3]; detergent 0.05%, storage period 10 days): 7%; Activity of cholesterol oxidase in %, referred to freshly prepared enzyme ([3]; detergent 0.05%, storage period 22 days): 1%; Activity of cholesterol oxidase in %, referred to freshly prepared enzyme ([3]; detergent 0.6%, storage period 10 days): 3%; Activity of cholesterol oxidase in %, referred to freshly prepared enzyme ([3]; detergent 0.6%, storage period 22 days): 1%; Activity of cholesterol oxidase in %, referred to freshly prepared enzyme ([3]; detergent amount not printed (column between 0.05% and 0.6%), storage period 10 days): 7%; Activity of cholesterol oxidase in %, referred to freshly prepared enzyme ([3]; detergent amount not printed (column between 0.05% and 0.6%), storage period 22 days): 1%"
polyoxyethylene derivatives of sorbitol anhydrides,,0.15 to 0.6,
